Key:
[1] = tested on: HCT116 MTAP null cells; assay: HCT116 MTAP null cell line proliferation / cell viability (CellTiter-Glo, 6 days); assay type: cell-based; conditions: 144 h; HCT116 MTAP null cells, 6 days treatment, CellTiter-Glo cell viability; read-out: HCT-116 MTAP null IC50
In short: (§1)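 Viability read by CellTiter-Glo luminescence after 6 days of compound treatment of HCT116 WT and MTAP-null cells (RPMI 1640, 10% FBS). Dose series were 1:3 steps from 1 or 10 μM (8–9 points), or 1:2 steps from 10 or 50 μM (22 points). IC50 from 4-parameter logistic or fixed-slope sigmoidal fit.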

[2] = tested on: HCT116 WT cells; assay: HCT116 WT (parent) cell line proliferation / cell viability (CellTiter-Glo, 6 days); assay type: cell-based; conditions: Homo sapiens, HCT-116, 144 h, 6 days treatment
In short: as §1

SMILES | IC50 [1] [nM] | IC50 [2] [nM]
CN(C(=O)c1cc2c(cn1)nc(N)c1cnn(C)c12)[C@@H]1COc2cc(-c3cnn(C(F)(F)F)c3)ccc21 [Example 241, 4-amino-N,1-dimethyl-N-((3S)-6-(1-(trifluoromethyl)-1H-pyrazol-4-yl)-2,3-dihydro-1-benzofuran-3-yl)-1H-pyr-azolo[4,3-c][1,7]naphthyridine-8-carboxamide] | 9 | 388
CN(C(=O)c1cc2c(cc1C(F)(F)F)nc(N)c1cnn(C)c12)[C@@H]1COCc2nc(C(F)(F)F)ccc21 [Example 303, 4-amino-N,1-dimethyl-7-(trifluoromethyl)-N-((5S)-2-(trifluoromethyl)-5,8-dihydro-6H-pyrano[3,4-b]pyridin-5-yl)-1H-pyrazolo[4,3-c]quinoline-8-carboxamide] | 14 | 902
CN(C(=O)c1ccc2nc(N)c3c(c2c1)COC3)[C@@H]1COc2cc(C(F)(F)F)cc(F)c21 (single isomer, unassigned) [Example 325] | 68 | 4160
CN(C(=O)c1ccc2nc(N)c3c(c2c1)COC3)[C@H]1CCc2nc(C(F)(F)F)ccc21 (single isomer, unassigned) [Example 528] | 5280 | 50000
CN(C(=O)c1cc2c(cc1C(F)(F)F)nc(N)c1cnn(C)c12)[C@@H]1COc2cc(C(F)(F)F)ccc21 [Example 253, 4-amino-N,1-dimethyl-7-(trifluoromethyl)-N-((3S)-6-(trifluoromethyl)-2,3-dihydro-1-benzofuran-3-yl)-1H-pyrazolo[4,3-c]quinoline-8-carboxamide] | 35 | 2100
CN(C(=O)c1cc2c(cc1F)nc(N)c1cnn(C)c12)[C@H]1COc2cc(C(F)(F)F)ncc21 (single isomer, unassigned) [Example 574] | 415 | 40100
CN(C(=O)c1ccc2nc(N)c3cnn(C)c3c2c1)[C@@H]1COc2cc(-c3cnccc3C(F)(F)F)ccc21 [Example 650, 4-amino-N,1-dimethyl-N-((3S)-6-(4-(trifluoromethyl)-3-pyridinyl)-2,3-dihydro-1-benzofuran-3-yl)-1H-pyrazolo[4,3-c]quinoline-8-carboxamide] | 8 | 447
CN=S(C)(=O)c1ccc2c(c1)OC[C@H]2N(C)C(=O)c1ccc2nc(N)c3c(c2c1)COC3 (mixture of isomers) [Example 447, 4-amino-N-((3S)-6-((R)-N,S-dimethylsulfonimidoyl)-2,3-dihydro-1-benzofuran-3-yl)-N-methyl-1,3-dihydrofuro[3,4-c]quinoline-8-carboxamide and 4-amino-N-((3S)-6-((S)-N,S-dimethylsulfonimidoyl)-2,3-dihydro-1-benzofuran-3-yl)-N-methyl-1,3-dihydrofuro[3,4-c]quinoline-8-carboxamide] | 724 | 24900
CN(C(=O)c1cc2c(cc1Cl)nc(N)c1cnn(C)c12)[C@H]1CCc2nc(C(F)(F)F)ccc21 (single isomer, unassigned) [Example 386] | 552 | 13600
CC(C)CN(C(=O)c1cc2c(cc1F)nc(N)c1c2cnn1C)[C@@H]1COCc2nc(C(F)(F)F)ccc21 [Example 517, 4-amino-7-fluoro-3-methyl-N-(2-methylpropyl)-N-((5S)-2-(trifluoromethyl)-5,8-dihydro-6H-pyrano[3,4-b]pyridin-5-yl)-3H-pyrazolo[3,4-c]quinoline-8-carboxamide] | 18 | 342
CN(C(=O)c1cc2c3c(c(N)nc2cn1)COC3)C1COc2cc(C(F)(F)F)ncc21 (racemic) [Example 454, 4-amino-N-methyl-N-((3R)-6-(trifluoromethyl)-2,3-dihydrofuro[3,2-c]pyridin-3-yl)-1,3-dihydrofuro[3,4-c][1,7]naphthyridine-8-carboxamide and 4-amino-N-methyl-N-((3S)-6-(trifluoromethyl)-2,3-dihydrofuro[3,2-c]pyridin-3-yl)-1,3-dihydrofuro[3,4-c][1,7]naphthyridine-8-carboxamide] | 3560 | 50000
